Our source for the IC50 and MED values is ChEMBL document CHEMBL4765322, “Novel curcumin derivatives as P-glycoprotein inhibitors: Molecular modeling, synthesis and sensitization of multidrug resistant cells to doxorubicin” (Eur J Med Chem, 2020).

The nature of experiment [1]: Cytotoxicity against human K562/4 cells assessed as reduction in cell viability measured after 72 hrs by MTT assay. Type of experiment: cell-based. The following applies: K562/4, 72 h. (Tetrazolium assays rely on reduction of a dye to a coloured formazan, in cell work by metabolically active cells.)
A short description of experiment [2]: Inhibition of P-gp mediated multidrug resistance in human K562/4 cells assessed as sensitization of cells to doxorubicin by measuring reduction in cell viability preincubated with compound for 30 mins prior to 1 uM doxorubicin addition and measured after 72 hrs by MTT assay. Type of experiment: cell-based.
The next experiment has as its system K562/4. The following applies: Homo sapiens.

Description for K562/4: Inhibition of P-gp-mediated doxorubicin efflux in human K562/4 cells assessed as minimal concentration required for the effect by flow cytometric analysis

As a reminder, the IC50 is the concentration that inhibits the measured activity by half. On to `CCOC(=O)c1ccc(-n2nc(/C=C/c3ccc(OC)c(OC)c3)cc2/C=C/c2ccc(OC)c(OC)c2)cc1[N+](=O)[O-]`, for which the IC50 in experiment [1] is greater than 50 µM.
As to `CCNC(=O)c1ccc(-n2nc(/C=C/c3ccc(OC)c(OC)c3)cc2/C=C/c2ccc(OC)c(OC)c2)cc1`, the figures for the IC50 in experiment [1] and in experiment [2] were greater than 50 µM and 0.2 µM, respectively.
`CCNC(=O)c1ccc(-n2nc(/C=C/c3ccc(O)c(OC)c3)cc2/C=C/c2ccc(O)c(OC)c2)cc1`: the IC50 in experiment [1] turned out to be 4.3 µM.
The same measure, in the same setting: then `CCOC(=O)c1ccc(-n2nc(/C=C/c3ccc(O)cc3)cc2/C=C/c2ccc(O)cc2)cc1`, with 11.1 µM; and `COc1cc(/C=C/c2cc(/C=C/c3ccc(O)c(OC)c3)n(-c3ccc(F)cc3)n2)ccc1O`, with 10.8 µM.
As for `COc1cc(/C=C/c2cc(/C=C/c3ccc(O)c(OC)c3)n(-c3ccc(C(=O)OC/C=C(\C)CC/C=C(\C)CCC=C(C)C)cc3)n2)ccc1O`, in experiment [1], the IC50 was greater than 25 µM.
Same read-out and setting: then `COc1cc(/C=C/c2cc(/C=C/c3ccc(O)c(OC)c3)n(-c3ccc(C(=O)OCC(C)C)cc3)n2)ccc1O`, with 6.4 µM.
As to `CCOC(=O)c1ccc(-n2nc(/C=C/c3ccc(OC)c(OC)c3)cc2/C=C/c2ccc(OC)c(OC)c2)cc1F`, the IC50 in experiment [1] was greater than 50 µM; in experiment [2], 0.2 µM.
`COc1cc2c(cc1OC)CN(CCc1ccc(NC(=O)c3cc(OC)c(OC)cc3NC(=O)c3cnc4ccccc4c3)cc1)CC2` returned an MED in the experiment with K562/4 of 1 µM.
For `CCOC(=O)c1ccc(-n2nc(/C=C/c3ccc(OC)c(OC)c3)cc2/C=C/c2ccc(OC)c(OC)c2)cc1`, the figures for the half-maximal inhibitory concentration (IC50) in experiment [1] and in experiment [2] were greater than 50 µM and 0.8 µM, respectively.
As for `COc1ccc(/C=C/c2cc(/C=C/c3ccc(OC)c(OC)c3)n(-c3ccc(C(=O)N4CCCC4)cc3)n2)cc1OC`, the half-maximal inhibitory concentration (IC50) in experiment [1] is greater than 50 µM; in experiment [2], 0.5 µM.
As to `COc1cc(/C=C/c2cc(/C=C/c3ccc(O)c(OC)c3)n(-c3ccc(C(=O)OC(C)(C)C)cc3)n2)ccc1O`, the IC50 in experiment [1] is greater than 25 µM.
Still for that read-out and setting: under `COc1cc(/C=C/c2cc(/C=C/c3ccc(O)c(OC)c3)n(-c3ccc(C(=O)OCC(F)(F)F)cc3)n2)ccc1O` stands greater than 25 µM; under `COc1cc(/C=C/c2cc(/C=C/c3ccc(O)c(OC)c3)n(-c3ccc(C(=O)OC/C=C(\C)CCC=C(C)C)cc3)n2)ccc1O`, greater than 25 µM; under `CCOC(=O)c1ccc(-n2nc(/C=C/c3ccc(O)c(OC)c3)cc2/C=C/c2ccc(O)c(OC)c2)cc1`, 10.2 µM.
On to `COc1cc(/C=C/c2cc(/C=C/c3ccc(O)c(OC)c3)n(-c3ccc(C(=O)OC(C)C)cc3)n2)ccc1O`, for which the IC50 in experiment [1] amounted to 12.5 µM.
As to `COC(=O)c1ccc(-n2nc(/C=C/c3ccc(O)c(OC)c3)cc2/C=C/c2ccc(O)c(OC)c2)cc1`, the IC50 in experiment [1] was 9.6 µM.
On to `COc1ccc(/C=C/c2cc(/C=C/c3ccc(OC)c(OC)c3)n(-c3ccc(C(=O)NCC(C)C)cc3)n2)cc1OC`, for which the IC50 in experiment [1] was greater than 50 µM; in experiment [2] it was 0.4 µM.
For the compound `CCOC(=O)c1ccc(-n2nc(/C=C/c3ccc(O)cc3)cc2/C=C/c2ccc(O)cc2)cc1F`, in experiment [1], the IC50 came out at 10.3 µM.
Consider `CCNC(=S)c1ccc(-n2nc(/C=C/c3ccc(OC)c(OC)c3)cc2/C=C/c2ccc(OC)c(OC)c2)cc1`, for which the IC50 in experiment [1] is greater than 50 µM; in experiment [2] it was 0.5 µM.
For `CCNS(=O)(=O)c1ccc(-n2nc(/C=C/c3ccc(OC)c(OC)c3)cc2/C=C/c2ccc(OC)c(OC)c2)cc1` the same measures were greater than 50 µM and 0.5 µM.
Consider `CCOC(=O)c1ccc(-n2nc(/C=C/c3ccc(O)c(OC)c3)cc2/C=C/c2ccc(O)c(OC)c2)cc1F`, for which the IC50 in experiment [1] was determined as 5.4 µM.
Still for that read-out and setting: under `CCNC(=O)c1ccc(-n2nc(/C=C/c3ccc4c(c3)OCO4)cc2/C=C/c2ccc3c(c2)OCO3)cc1` stands greater than 50 µM.
